We go through one molecule from the NIST ThermoML archive (doi:10.1016/j.jct.2010.04.006).

Data set [1] can be described thus: Molar enthalpy of transition or fusion. The conditions noted are these: Crystal; DSC.
For data set [2] the following is noted: Crystal; DTA.

Structures are written as SMILES. Numbers after ± are expanded uncertainties.

`O=C1Cc2ccccc2N1` [indolin-2-one]: the “Molar enthalpy of transition or fusion” value in data set [1] was 18.7 ± 0.57 kJ/mol. Moreover, in data set [2], the Normal melting temperature was 125.71 ± 0.5 °C.
